How the values were obtained:
[1] = phase II human clinical trials; cited from earlier work
[2] = tested on: herpes simplex virus type 1; conditions: DNA and RNA viruses such as herpes simplex virus type 1; cited from earlier work
murine leukemia cells = conditions: cited from earlier work
[3] = tested on: HCT-116 human colon carcinoma cell; test: Cytotoxic activity using HCT-116 human colon carcinoma cell; type: cell-based; conditions: compounds purified by semi-preparative HPLC; cell line not restated

Row | Compound | toxicity in human subjects [1] | antiviral activity [2] | activity against murine leukemia cells (murine leukemia cells) | concentration at which strong cytotoxic activity was shown [3] [ng/mL]
1 | CC[C@H](C)[C@H]1NC(=O)[C@@H](NC(=O)[C@@H](CC(C)C)N(C)C(=O)[C@@H]2CCCN2C(=O)C(C)O)[C@@H](C)OC(=O)[C@H](Cc2ccc(OC)cc2)N(C)C(=O)[C@@H]2CCCN2C(=O)[C@H](CC(C)C)NC(=O)[C@@H](C)C(=O)[C@H](C(C)C)OC(=O)C[C@@H]1O (some centres unmarked) [didemnin B] | high toxicity | strong antiviral agent | strong activity | 0.074
2 | nordidemnin B | – | – | – | 0.074

— patent publication US9644005B2, “Didemnin biosynthetic gene cluster in Tistrella mobilis” (King Abdullah University of Science and Technology, priority 2011, dated 2017)
